Measured values from publication PMC8217813, “Bridging Computational Vaccinology and Vaccine Development Through Systematic Identification, Characterization, and Downselection of Conserved and Variable Circumsporozoite Protein CD4 T Cell Epitopes From Diverse Plasmodium falciparum Strains” (Frontiers in Immunology, 2021).
Read-outs that look alike come from different tables or passages of the source. Peptide text beside a SMILES is read from it.

Target: T1, HLA A*0101 (Homo sapiens, UniProt P04439, A114D/A174V/A182V/D101N/D185E/E176A/E190D/L180R/Q94H/R68K/S129P/T187R/V100A/V91M/W191G)
T1 construct: Pure Protein, LLC (ran the assay)
Test: biochemical
Format: binding

[1] = allele A0101, cell-free competition with fluorescently labeled control peptide, fluorescence polarization at 72 hours, read-out: IC50

Molecule	IC50 [1] [µM]	further results
CC[C@H](C)[C@H](NC(=O)[C@H](Cc1c[nH]cn1)NC(=O)[C@H](CCCCN)NC(=O)[C@H](CC(=O)O)NC(=O)[C@H](CO)NC(=O)[C@@H]1CCCN1)C(=O)N[C@@H](CCCCN)C(=O)N[C@@H](CCC(=O)O)C(=O)N[C@@H](Cc1ccc(O)cc1)C(=O)O [CL1-62] (H-PSDKHIKEY-OH)	24.8	
CC(C)C[C@H](NC(=O)[C@H](CCC(N)=O)NC(=O)[C@H](CC(=O)O)NC(=O)[C@H](CCCCN)NC(=O)[C@@H]1CCCN1C(=O)[C@H](CCCCN)NC(=O)[C@H](CC(=O)O)NC(=O)[C@H](C)NC(=O)[C@@H](N)CO)C(=O)N[C@@H](CC(=O)O)C(=O)O [Cluster 350_CVX65] (H-SADKPKDQLD-OH)	8.97	
CC[C@H](C)[C@H](NC(=O)[C@H](Cc1c[nH]cn1)NC(=O)[C@H](CCCCN)NC(=O)[C@H](CC(=O)O)NC(=O)[C@H](CO)NC(=O)[C@@H]1CCCN1)C(=O)N[C@@H](CCC(=O)O)C(=O)N[C@@H](CCC(N)=O)C(=O)N[C@@H](Cc1ccc(O)cc1)C(=O)O [Cluster 311_ICS7] (H-PSDKHIEQY-OH)		IC50: 2 µM
CC[C@H](C)[C@H](NC(=O)[C@H](Cc1c[nH]cn1)NC(=O)[C@H](CCCCN)NC(=O)[C@H](CC(=O)O)NC(=O)[C@H](CO)NC(=O)[C@@H]1CCCN1)C(=O)N[C@H](C(=O)N[C@@H](CCC(=O)O)C(=O)N[C@@H](Cc1ccc(O)cc1)C(=O)O)[C@@H](C)O [Cluster 311_ICS2] (H-PSDKHITEY-OH)		IC50: 2.67 µM
LSTEWSPCS [327_3D7 (9)]		IC50 (nM) (allele A0101, cell-free competition with fluorescently labeled control peptide, fluorescence polarization at 72 hours): Non-Binder
CC(C)[C@H](NC(=O)[C@H](CO)NC(=O)[C@H](CS)NC(=O)[C@@H]1CCCN1C(=O)[C@H](CO)NC(=O)[C@H](Cc1c[nH]c2ccccc12)NC(=O)[C@H](CCC(=O)O)NC(=O)[C@@H](NC(=O)[C@@H](N)CO)[C@@H](C)O)C(=O)O [Cluster 328_3D7] (H-STEWSPCSV-OH)	3.18	
CC(C)[C@H](NC(=O)[C@H](CO)NC(=O)[C@H](CO)NC(=O)[C@@H](N)CS)C(=O)N[C@@H](Cc1ccccc1)C(=O)N[C@@H](CC(N)=O)C(=O)N[C@H](C(=O)N[C@H](C(=O)N[C@@H](CC(N)=O)C(=O)O)C(C)C)C(C)C [Cluster 374_3D7] (H-CSSVFNVVN-OH)	82.5	
